Experimental data as given in US11564986B2, “Approach for treatment of cancer via immunomodulation by using talabostat” (ONKOSXCEL THERAPEUTICS, LLC, priority 2015, dated 2023).

Columns and labels:
[1] = system: pancreatic and lung cancer; conditions: Talabostat alone or with cytokine or chemotherapeutic agents; cited from earlier work
[2] = system: CT26 tumor cells; test: Immunophenotyping of CT26 tumor samples by quantitative PCR (NK cells, perforin, granzyme B, Tregs); type: in vivo; conditions: CT26, day 7 after first dosing; Talabostat 20 μg/mouse qd, PD-1 antagonist 5 mg/kg
Protocol: Mice (Balb/c) corresponding to 20±2 g weight, received food and water ad libitum. The study protocol, the procedures involving the care and use of animals were reviewed and approved by the Institutional Animal Care and Use Committee (IACUC) to ensure compliance with the regulations of the Association for Assessment and Accreditation of Laboratory Animal Care (AAALAC).
Tumor Model The CT26 tumor cells were cultured in RPMI1640 medium supplemented with 10% heat inactivated fetal bovine serum, 100 U/ml penicillin and 100 μg/ml streptomycin, at 37° C. in an incubator of 5% CO2. The tumor cells were routinely subcultured three times per week. The cells growing in an exponential growth phase were harvested and counted for tumor inoculation. […]
The immuno-modulatory effect of the single dose (20 μg/mouse qd) administration of Talabostat alone and in combination with PD-1 antagonist (5 mg/kg), at various dose schedules was analysed by collecting the blood and the tumor samples 7 days after the first dosing the mice.
Tumor RNA samples were extracted from the frozen tumor tissues using the Trizol reagent. […] Quantitative PCR were conducted using a master mix from Invitrogen (Cat. #4309155) on an ABI 7900HT Fast Real-Time PCR System. The results were analyzed using a Delta Delta Ct method. […]

[3] = in vivo; cited from earlier work
[4] = system: MC38 mouse colon cancer cell line; test: Antitumor effect in MC38 mouse model of colon adenocarcinoma (tumor volume, tolerability; Study 1 and Study 2); type: in vivo
Text: Six to seven-week-old female C57BL/6 mice were used in the studies. Mice received food and water ad libitum. The study protocol, the procedures involving the care and use of animals were reviewed and approved by the Institutional Animal Care and Use Committee (IACUC) to ensure compliance with the regulations of the Association for Assessment and Accreditation of Laboratory Animal Care (AAALAC).
MC38 mouse colon cancer cell line was provided by GenScript. The tumor cells were maintained as monolayer culture in DMEM supplemented with 10% fetal bovine serum (FBS), 1% Glutamax® and 1% Penicillin-Streptomycin at 37° C. in an atmosphere with 5% CO2. The cells were routinely subcultured every 2 days to maintain growth at exponential phase. The tumor cells growing in exponential growth phase were harvested by trypsinization, followed by centrifugation at 335×g relative centrifugal force (RCF) in a centrifuge. The supernatant was subsequently removed by aspiration. Cell pellet was resuspended in approximately 10× volume of cell culture medium and counted. The cell suspension was centrifuged again and processed as above and finally resuspended in HBSS−/− at a density of 1×10^7 cells per ml. Cell viability was determined to be 95% by trypan blue staining. Cell suspensions were implanted in the subcutaneous space of the flank of mice of female C57BL/6 mice (2.0×10^6 MC-38 cells in 0.2 mL Hanks Balanced Salt Solution). Mice were inoculated subcutaneously in the right lower flank (near the dorsal thigh region) with a single volume of 0.1 ml cell suspension containing about 1×10^6 cells.
Tumor size was measured twice per week in 2 dimensions using a caliper (recorded up to one decimal point). Tumor volume, expressed in mm^3, was calculated using the following formula, in which “a” and “b” were the long and the short diameters of a tumor, respectively. V (mm^3)=(a×b^2)/2
Animals were weighed and randomized into treatment groups when the mean tumor size was around 120 mm^3 on Day 0.
Data related to tumor volume, tumor weight, and body weight were presented as mean and the standard error of the mean (SEM). Statistical analyses were conducted using Student's t-test. P<0.05 was considered statistically significant. * and ** indicate P<0.05 and P<0.01, respectively.
The antitumor effect of single dose (qd) as well as twice daily (bid) administration of Talabostat alone and in combination with PD-1 antagonist at various dose schedules was evaluated in MC-38 (murine colon) tumor bearing mice. After the tumors were established, mice were sorted into various groups with a mean tumor volume of ˜200 mm^3. The test article and antibody were administered according to the dosing schedules described in Tables 5 and 6.

[5] = system: melanoma; conditions: monotherapy or combination; cited from earlier work

Compound | Primary and secondary endpoints in clinical trials [1] | NK cell activation, perforin (Pfr1) release in tumor (relative mRNA) [2] | Most common adverse events [3] | Mean (±SEM) tumor volume ([4]; Study 1, MC38, Day 13, Talabostat 10 μg twice daily p.o.) | Mean (±SEM) tumor volume ([4]; Study 1, MC38, Day 13, Talabostat 20 μg twice daily p.o.) | Antitumor effect compared with the vehicle control group ([4]; Study 1, MC38, single treatment groups) | Mean (±SEM) tumor volume ([4]; Study 2, MC38, Day 11, Talabostat 2.5 μg BID p.o.) | Mean (±SEM) tumor volume ([4]; Study 2, MC38, Day 11, Talabostat 5 μg BID p.o.) | Mean (±SEM) tumor volume ([4]; Study 2, MC38, Day 11, Talabostat 10 μg BID p.o.) | Mean (±SEM) tumor volume ([4]; Study 2, MC38, Day 11, Talabostat 20 μg QD p.o.) | Response rate in melanoma patients [5] [%]
CC(C)[C@H](N)C(=O)N1CCC[C@H]1B(O)O [Talabostat, [(2R)-I-I [(2S)-2-amino-3-methyl-1-oxobutyl]-2-pyrrolidinyl] boronic acid] | unable to meet primary as well as secondary endpoints | activation in terms of release of perforin | edema/peripheral swelling, hypotension, hypovolemia, and dizziness | 1.66 (±0.48) cc | 1.30 (±0.42) cc | significant better effect | 3.2 (±0.48) cc | 2.9 (±0.42) cc | 2.9 (±0.18) cc | 2.0 (±0.43) cc | –
Ipilimumab: CTLA-4 antagonist; human monoclonal antibody, CAS No. 477202-00-9 | – | – | – | – | – | – | – | – | – | – | 11
Nivolumab: anti-PD-1 antibody, CAS Registry Number 946414-94-4 | – | – | – | – | – | – | – | – | – | – | 32
